Experimental data taken from patent US6579536B1, “Sustained-release pharmaceutical preparation containing tilidine mesylate as active ingredient” (Hexal AG, priority 1998, dated 2003).

Assay: Stability of tilidine mesylate in solid form, in combination with solid additives

## tilidine mesylate
  decomposition in the solid form (stability): virtually does not undergo any decomposition
